In the NIST ThermoML archive (doi:10.1021/je201009c):
Numbers after ± are expanded uncertainties.

Assay: xn = mol fraction of the nth substance listed
Settings: for surface tension liquid-gas: Capillary rise; for viscosity / mass density: 100.8 kPa, Liquid; for viscosity: Falling or rolling sphere viscometry; for mass density: Vibrating tube method

CC(=O)OCc1ccccc1 [benzyl ethanoate] + CCO
Settings | mass density [kg/m3] | surface tension liquid-gas [mN/m] | viscosity [mPa·s]
293.15 K, x2 = 0 | 1055.81 ± 0.3 | 37.3 ± 0.5 | 2.324 ± 0.026
293.15 K, x2 = 0.0502 | 1050.61 ± 0.28 | 36.3 ± 0.4 | 2.18 ± 0.025
293.15 K, x2 = 0.1 | 1044.89 ± 0.27 | 35.4 ± 0.4 | 2.063 ± 0.024
293.15 K, x2 = 0.1498 | 1038.77 ± 0.25 | 34.4 ± 0.4 | 1.962 ± 0.023
293.15 K, x2 = 0.1998 | 1032.15 ± 0.24 | 33.4 ± 0.4 | 1.879 ± 0.023
293.15 K, x2 = 0.2499 | 1025.14 ± 0.23 | 32.5 ± 0.4 | 1.808 ± 0.022
293.15 K, x2 = 0.2998 | 1017.51 ± 0.22 | 31.6 ± 0.4 | 1.736 ± 0.022
293.15 K, x2 = 0.35 | 1009.27 ± 0.21 | 30.8 ± 0.4 | 1.672 ± 0.021
293.15 K, x2 = 0.4 | 1000.55 ± 0.21 | 30 ± 0.4 | 1.613 ± 0.021
293.15 K, x2 = 0.4501 | 991.15 ± 0.21 | 29.3 ± 0.4 | 1.551 ± 0.02
293.15 K, x2 = 0.5 | 980.94 ± 0.22 | 28.6 ± 0.4 | 1.49 ± 0.02
293.15 K, x2 = 0.5499 | 969.73 ± 0.21 | 27.9 ± 0.4 | 1.439 ± 0.02
293.15 K, x2 = 0.6 | 957.31 ± 0.21 | 27.2 ± 0.4 | 1.392 ± 0.019
293.15 K, x2 = 0.65 | 943.77 ± 0.21 | 26.7 ± 0.4 | 1.347 ± 0.019
293.15 K, x2 = 0.7 | 928.69 ± 0.2 | 26.2 ± 0.4 | 1.305 ± 0.019
293.15 K, x2 = 0.7499 | 912.06 ± 0.2 | 25.8 ± 0.4 | 1.267 ± 0.019
293.15 K, x2 = 0.7999 | 893.44 ± 0.2 | 25.2 ± 0.4 | 1.232 ± 0.019
293.15 K, x2 = 0.85 | 872.42 ± 0.2 | 24.5 ± 0.4 | 1.202 ± 0.018
293.15 K, x2 = 0.9 | 848.54 ± 0.19 | 23.8 ± 0.4 | 1.188 ± 0.018
293.15 K, x2 = 0.95 | 821.38 ± 0.19 | 23.1 ± 0.4 | 1.178 ± 0.018
303.15 K, x2 = 0 | 1046.74 ± 0.29 | 35.6 ± 0.4 | 1.836 ± 0.023
303.15 K, x2 = 0.0502 | 1041.18 ± 0.28 | 34.8 ± 0.4 | 1.75 ± 0.022
303.15 K, x2 = 0.1 | 1035.33 ± 0.26 | 34 ± 0.4 | 1.663 ± 0.022
303.15 K, x2 = 0.1498 | 1029.09 ± 0.25 | 33.2 ± 0.4 | 1.595 ± 0.021
303.15 K, x2 = 0.1998 | 1022.42 ± 0.24 | 32.4 ± 0.4 | 1.534 ± 0.021
303.15 K, x2 = 0.2499 | 1015.3 ± 0.22 | 31.6 ± 0.4 | 1.477 ± 0.02
303.15 K, x2 = 0.2998 | 1007.78 ± 0.22 | 30.8 ± 0.4 | 1.42 ± 0.02
303.15 K, x2 = 0.35 | 999.68 ± 0.21 | 30 ± 0.4 | 1.375 ± 0.02
303.15 K, x2 = 0.4 | 990.86 ± 0.21 | 29.2 ± 0.4 | 1.327 ± 0.019
303.15 K, x2 = 0.4501 | 981.38 ± 0.21 | 28.5 ± 0.4 | 1.281 ± 0.019
303.15 K, x2 = 0.5 | 971.11 ± 0.22 | 27.8 ± 0.4 | 1.233 ± 0.019
303.15 K, x2 = 0.5499 | 959.94 ± 0.21 | 27.1 ± 0.4 | 1.194 ± 0.019
303.15 K, x2 = 0.6 | 947.61 ± 0.21 | 26.4 ± 0.4 | 1.151 ± 0.018
303.15 K, x2 = 0.65 | 933.97 ± 0.21 | 25.8 ± 0.4 | 1.115 ± 0.018
303.15 K, x2 = 0.7 | 919.03 ± 0.21 | 25.2 ± 0.4 | 1.077 ± 0.018
303.15 K, x2 = 0.7499 | 902.5 ± 0.2 | 24.8 ± 0.4 | 1.038 ± 0.018
303.15 K, x2 = 0.7999 | 883.9 ± 0.2 | 24.2 ± 0.4 | 1.009 ± 0.018
303.15 K, x2 = 0.85 | 863.07 ± 0.2 | 23.6 ± 0.4 | 0.989 ± 0.018
303.15 K, x2 = 0.9 | 839.36 ± 0.19 | 22.9 ± 0.4 | 0.982 ± 0.018
303.15 K, x2 = 0.95 | 812.21 ± 0.19 | 22.2 ± 0.4 | 0.975 ± 0.018
313.15 K, x2 = 0 | 1037.42 ± 0.29 | 34.3 ± 0.4 | 1.474 ± 0.021
313.15 K, x2 = 0.0502 | 1031.85 ± 0.27 | 33.6 ± 0.4 | 1.413 ± 0.02
313.15 K, x2 = 0.1 | 1025.96 ± 0.26 | 32.8 ± 0.4 | 1.362 ± 0.02
313.15 K, x2 = 0.1498 | 1019.7 ± 0.24 | 32 ± 0.4 | 1.308 ± 0.02
313.15 K, x2 = 0.1998 | 1012.98 ± 0.23 | 31.3 ± 0.4 | 1.265 ± 0.019
313.15 K, x2 = 0.2499 | 1005.82 ± 0.22 | 30.5 ± 0.4 | 1.226 ± 0.019
313.15 K, x2 = 0.2998 | 998.2 ± 0.21 | 29.8 ± 0.4 | 1.181 ± 0.019
313.15 K, x2 = 0.35 | 989.97 ± 0.21 | 29.1 ± 0.4 | 1.143 ± 0.019
313.15 K, x2 = 0.4 | 981.2 ± 0.21 | 28.4 ± 0.4 | 1.101 ± 0.018
313.15 K, x2 = 0.4501 | 971.7 ± 0.21 | 27.7 ± 0.4 | 1.067 ± 0.018
313.15 K, x2 = 0.5 | 961.42 ± 0.22 | 27 ± 0.4 | 1.029 ± 0.018
313.15 K, x2 = 0.5499 | 950.19 ± 0.22 | 26.4 ± 0.4 | 0.999 ± 0.018
313.15 K, x2 = 0.6 | 937.83 ± 0.21 | 25.8 ± 0.4 | 0.964 ± 0.018
313.15 K, x2 = 0.65 | 924.36 ± 0.21 | 25.2 ± 0.4 | 0.93 ± 0.018
313.15 K, x2 = 0.7 | 909.51 ± 0.21 | 24.6 ± 0.4 | 0.891 ± 0.017
313.15 K, x2 = 0.7499 | 893.04 ± 0.2 | 24 ± 0.4 | 0.867 ± 0.017
313.15 K, x2 = 0.7999 | 874.6 ± 0.2 | 23.4 ± 0.4 | 0.841 ± 0.017
313.15 K, x2 = 0.85 | 853.75 ± 0.2 | 22.8 ± 0.4 | 0.823 ± 0.017
313.15 K, x2 = 0.9 | 830.17 ± 0.2 | 22.1 ± 0.4 | 0.812 ± 0.017
313.15 K, x2 = 0.95 | 803.27 ± 0.19 | 21.4 ± 0.4 | 0.808 ± 0.017
323.15 K, x2 = 0 | 1027.51 ± 0.28 | 33.2 ± 0.4 | 1.256 ± 0.02
323.15 K, x2 = 0.0502 | 1021.88 ± 0.26 | 32.5 ± 0.4 | 1.22 ± 0.019
323.15 K, x2 = 0.1 | 1015.97 ± 0.25 | 31.8 ± 0.4 | 1.187 ± 0.019
323.15 K, x2 = 0.1498 | 1009.69 ± 0.24 | 31.1 ± 0.4 | 1.154 ± 0.019
323.15 K, x2 = 0.1998 | 1002.94 ± 0.23 | 30.4 ± 0.4 | 1.12 ± 0.019
323.15 K, x2 = 0.2499 | 995.85 ± 0.22 | 29.6 ± 0.4 | 1.086 ± 0.018
323.15 K, x2 = 0.2998 | 988.26 ± 0.21 | 28.9 ± 0.4 | 1.05 ± 0.018
323.15 K, x2 = 0.35 | 980.03 ± 0.21 | 28.2 ± 0.4 | 1.015 ± 0.018
323.15 K, x2 = 0.4 | 971.24 ± 0.21 | 27.5 ± 0.4 | 0.979 ± 0.018
323.15 K, x2 = 0.4501 | 961.72 ± 0.21 | 26.7 ± 0.4 | 0.943 ± 0.018
323.15 K, x2 = 0.5 | 951.49 ± 0.22 | 26 ± 0.4 | 0.911 ± 0.018
323.15 K, x2 = 0.5499 | 940.31 ± 0.22 | 25.3 ± 0.4 | 0.882 ± 0.017
323.15 K, x2 = 0.6 | 927.98 ± 0.21 | 24.7 ± 0.4 | 0.853 ± 0.017
323.15 K, x2 = 0.65 | 914.58 ± 0.21 | 24.1 ± 0.4 | 0.825 ± 0.017
323.15 K, x2 = 0.7 | 899.72 ± 0.21 | 23.5 ± 0.4 | 0.795 ± 0.017
323.15 K, x2 = 0.7499 | 883.26 ± 0.21 | 22.9 ± 0.4 | 0.77 ± 0.017
323.15 K, x2 = 0.7999 | 864.86 ± 0.2 | 22.3 ± 0.4 | 0.743 ± 0.017
323.15 K, x2 = 0.85 | 844.15 ± 0.2 | 21.7 ± 0.4 | 0.723 ± 0.017
323.15 K, x2 = 0.9 | 820.71 ± 0.2 | 21 ± 0.4 | 0.704 ± 0.017
323.15 K, x2 = 0.95 | 794.02 ± 0.2 | 20.3 ± 0.4 | 0.692 ± 0.017
